Source: paper PMC9630929 (Journal of medicinal chemistry, 2022)

What was measured:
PBRM1-BD5 = settings: cited from earlier work
SMARCA2 bromodomain [1] = settings: cited from earlier work
PC3 cells = settings: 0.1, 1, 10 μM; compound 7 up to 100 μM
SMARCA2 bromodomain [2] = settings: DSF; cited from earlier work
[3] = system: other tested bromodomains; settings: DSF, 100 μM inhibitor, 10 μM bromodomain
SMARCA2B bromodomain [4] = biological target: SMARCA2B bromodomain (Homo sapiens, UniProt P51531); format: binding; settings: DSF, 100 μM inhibitor, 10 μM bromodomain
[5] = system: LNCaP cells expressing shRNA against PBRM1 or vector control; format: cell-based, human; settings: 10 μM, 5 days
[6] = Solubility observed in the AlphaScreen assay; format: physicochemical; settings: at tested concentrations
SMARCA2B bromodomain [7] = settings: cited from earlier work

SMARCA2B bromodomain (Homo sapiens, UniProt P51531), sequence (P51531 1373-1493 isoform P51531-2 limits assumed): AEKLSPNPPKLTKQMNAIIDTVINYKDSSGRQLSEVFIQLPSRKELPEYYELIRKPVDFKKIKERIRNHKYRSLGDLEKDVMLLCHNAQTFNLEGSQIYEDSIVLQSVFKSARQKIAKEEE

CN(C)/C=C1\CCn2c1nc(=O)c1c(Cl)cccc12 [Compound 2, (E)-6-Chloro-3-((dimethylamino)methylene)-2,3-dihydropyrrolo[1,2-a]quinazolin-5(1H)-one]
binding toward PBRM1-BD5 (PBRM1-BD5): nanomolar binding
binding toward SMARCA2 bromodomain (SMARCA2 bromodomain [1]): nanomolar binding

CCC(/C=C1\CCn2c1nc(=O)c1c(Cl)cccc12)CC [Compound 7, (E)-6-Chloro-3-(2-ethylbutylidene)-2,3-dihydropyrrolo[1,2-a]quinazolin-5(1H)-one]
growth inhibition of PC3 cells (PC3 cells): more substantial inhibition
ΔTm SMARCA2 bromodomain (SMARCA2 bromodomain [2]): > 2.5 °C

Cc1ccccc1C1NC(=O)c2c(Cl)cccc2N1 (centres unmarked) [Compound 15, 5-Chloro-2-(2-methylphenyl)-2,3-dihydroquinazolin-4(1H)-one]
thermal stabilization of the other tested bromodomains (ΔTm) [3]: < 1 °C
SMARCA2B ΔTm (SMARCA2B bromodomain [4]): did not exhibit detectable thermal stabilization

Cc1cccc(C2NC(=O)c3c(Cl)cccc3N2)c1 (centres unmarked) [Compound 16, 5-Chloro-2-(3-methylphenyl)-2,3-dihydroquinazolin-4(1H)-one]
growth inhibition of PC3 cells (PC3 cells): do not inhibit the growth
SMARCA2B ΔTm (SMARCA2B bromodomain [4]): did not exhibit detectable thermal stabilization
effect on LNCaP viability with native PBRM1 vs PBRM1 knockdown [5]: more significant effect on LNCaP viability in cells with native PBRM1 levels than in cells with PBRM1 knockdown

Cc1cc(C)c(C2NC(=O)c3c(Cl)cccc3N2)c(C)c1 (centres unmarked) [Compound 22, 5-Chloro-2-(2,4,6-trimethylphenyl)-2,3-dihydroquinazolin-4(1H)-one]
solubility in the AlphaScreen assay [6]: solubility issues

Cc1cccc(C2NC(=O)c3c(Br)cccc3N2)c1 (centres unmarked) [Compound 34, 5-Bromo-2-(3-methylphenyl)-2,3-dihydroquinazolin-4(1H)-one]
growth inhibition of PC3 cells (PC3 cells): do not inhibit the growth

CCC(CC)C1CC12CCn1c2nc(=O)c2c(Cl)cccc21 (centres unmarked) [LM146]
binding toward SMARCA2B bromodomain (SMARCA2B bromodomain [7]): low micromolar affinity

O=C(/C=C/N1C[C@H]2C[C@@H]1CN2c1ccccn1)c1ccccc1O [PFI-3]
binding toward PBRM1-BD5 (PBRM1-BD5): nanomolar binding
binding toward SMARCA2 bromodomain (SMARCA2 bromodomain [1]): nanomolar binding
